From patent US10750743B2, “Pyridazinone herbicides” (E.I. DU PONT DE NEMOURS AND COMPANY, priority 2015, dated 2020)

Columns and labels:
Assay type in all cases: in vivo
[1] = system: rice (Oryza sativa); assay: Test B flooded paddy test, visual rating; settings: Flood, 250 g ai/ha, applied to paddy water, rated after 13 to 15 d
How it was run: (§1)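 Plants at the 2-leaf stage were flooded to 3 cm above soil, and test compounds were applied directly into the paddy water, which was held at that depth throughout. After 13 to 15 d in a greenhouse, injury was rated visually against untreated controls on a 0–100 scale (0 no effect, 100 complete control).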

[2] = system: barnyardgrass (Echinochloa crus-galli); assay: Test B flooded paddy test, visual rating; settings: Flood, 250 g ai/ha, applied to paddy water, rated after 13 to 15 d
How it was run: as §1

[3] = system: ducksalad (Heteranthera limosa); assay: Test B flooded paddy test, visual rating; settings: Flood, 250 g ai/ha, applied to paddy water, rated after 13 to 15 d
How it was run: as §1

[4] = system: sedge, umbrella (small-flower umbrella sedge, Cyperus difformis); assay: Test B flooded paddy test, visual rating; settings: Flood, 250 g ai/ha, applied to paddy water, rated after 13 to 15 d
How it was run: as §1

[5] = system: corn (Zea mays); assay: Test A postemergence application, visual injury rating; settings: for Plant response rating (0 to 100 scale), Corn: 0 is no effect, 100 is complete control; for Corn plant response rating: 0 to 100 scale, 0 no effect, 100 complete control
How it was run: (§2)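 Seeds sown in a loam soil–sand blend received a directed preemergence soil spray of test chemical in a non-phytotoxic solvent mixture with surfactant. Postemergence plants were sprayed at 2 to 10 cm, one- to two-leaf stage. After approximately 10 d in greenhouse, injury was visually rated 0 (no effect) to 100 (complete control) against untreated controls.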

[6] = system: ragweed (common ragweed, Ambrosia elatior); assay: as above; settings: for Plant response rating (0 to 100 scale), Ragweed: 0 is no effect, 100 is complete control; for Ragweed plant response rating: 0 to 100 scale, 0 no effect, 100 complete control
How it was run: as §2

[7] = system: Foxtail, Green; assay: as above; settings: for Plant response rating (0 to 100 scale), Foxtail, Green: 0 is no effect, 100 is complete control; for Foxtail, Green plant response rating: 0 to 100 scale, 0 no effect, 100 complete control
How it was run: as §2

[8] = system: barnyardgrass (Echinochloa crus-galli); assay: as above; settings: 0 to 100 scale, 0 no effect, 100 complete control
How it was run: as §2

[9] = system: blackgrass (Alopecurus myosuroides); assay: as above; settings: 0 to 100 scale, 0 no effect, 100 complete control
How it was run: as §2

[10] = system: wheat (Triticum aestivum); assay: as above; settings: for Plant response rating (0 to 100 scale), Wheat: 0 is no effect, 100 is complete control; for Wheat plant response rating: 0 to 100 scale, 0 no effect, 100 complete control
How it was run: as §2

[11] = system: kochia (Kochia scoparia); assay: as above; settings: for Plant response rating (0 to 100 scale), Kochia: 0 is no effect, 100 is complete control; for Kochia plant response rating: 0 to 100 scale, 0 no effect, 100 complete control
How it was run: as §2

[12] = system: pigweed (Amaranthus retroflexus); assay: as above; settings: for Plant response rating (0 to 100 scale), Pigweed: 0 is no effect, 100 is complete control; for Pigweed plant response rating: 0 to 100 scale, 0 no effect, 100 complete control
How it was run: as §2

[13] = system: ryegrass, It. (Italian ryegrass, Lolium multiflorum); assay: as above; settings: for Plant response rating (0 to 100 scale), Ryegrass, It.: 0 is no effect, 100 is complete control; for Ryegrass, It. plant response rating: 0 to 100 scale, 0 no effect, 100 complete control
How it was run: as §2

[14] = system: galium (catchweed bedstraw, Galium aparine); assay: as above; settings: for Plant response rating (0 to 100 scale), Galium: 0 is no effect, 100 is complete control; for Galium plant response rating: 0 to 100 scale, 0 no effect, 100 complete control
How it was run: as §2

[15] = system: ragweed (common ragweed, Ambrosia elatior); assay: Test A preemergence, directed soil spray, visual injury rating; settings: 0 is no effect, 100 is complete control
How it was run: as §2

[16] = system: Foxtail, Green; assay: as above; settings: 0 is no effect, 100 is complete control
[17] = system: barnyardgrass (Echinochloa crus-galli); assay: as above; settings: 0 is no effect, 100 is complete control
How it was run: as §2

[18] = system: kochia (Kochia scoparia); assay: as above; settings: 0 is no effect, 100 is complete control
How it was run: as §2

[19] = system: pigweed (Amaranthus retroflexus); assay: as above; settings: 0 is no effect, 100 is complete control
How it was run: as §2

[20] = system: ryegrass, It. (Italian ryegrass, Lolium multiflorum); assay: as above; settings: 0 is no effect, 100 is complete control
How it was run: as §2

| Structure (SMILES) | Rice plant response rating (0 to 100 scale, 0 is no effect, 100 is complete control) [1] | Barnyardgrass plant response rating (0 to 100 scale, 0 is no effect, 100 is complete control) [2] | Ducksalad plant response rating (0 to 100 scale, 0 is no effect, 100 is complete control) [3] | Sedge, Umbrella plant response rating (0 to 100 scale, 0 is no effect, 100 is complete control) [4] | Corn plant response rating ([5]; 125 g ai/ha) | Ragweed plant response rating ([6]; 125 g ai/ha) | Foxtail, Green plant response rating ([7]; 125 g ai/ha) | Barnyardgrass plant response rating ([8]; 31 g ai/ha) | Barnyardgrass plant response rating ([8]; 125 g ai/ha) | Blackgrass plant response rating ([9]; 125 g ai/ha) | Wheat plant response rating ([10]; 125 g ai/ha) | Kochia plant response rating ([11]; 125 g ai/ha) | Pigweed plant response rating ([12]; 125 g ai/ha) | Ryegrass, It. plant response rating ([13]; 125 g ai/ha) | Galium plant response rating ([14]; 125 g ai/ha) | Plant response rating (0 to 100 scale), Ragweed ([15]; 31 g ai/ha) | Plant response rating (0 to 100 scale), Ragweed ([15]; 125 g ai/ha) | Plant response rating (0 to 100 scale), Foxtail, Green ([16]; 31 g ai/ha) | Plant response rating (0 to 100 scale), Foxtail, Green ([16]; 125 g ai/ha) | Plant response rating (0 to 100 scale), Barnyardgrass ([17]; 31 g ai/ha) | other results |
| --- | --- | --- | --- | --- | --- | --- | --- | --- | --- | --- | --- | --- | --- | --- | --- | --- | --- | --- | --- | --- | --- |
| CCC(=O)Oc1c(C)nn(C)c(=O)c1-c1c(Br)ccc2c1cnn2C [Compound 64] | 0 | 0 | 0 | 0 | 0 | 0 | 0 | 0 | 0 | 0 | 0 | 0 | 0 | 0 | 50 | 0 | 0 | 0 | 0 | 0 | Plant response rating (0 to 100 scale), Corn ([5]; 31 g ai/ha): 0; Plant response rating (0 to 100 scale), Ragweed ([6]; 31 g ai/ha): 0; Plant response rating (0 to 100 scale), Foxtail, Green ([7]; 31 g ai/ha): 0; Blackgrass plant response rating ([9]; 31 g ai/ha): 60; Plant response rating (0 to 100 scale), Wheat ([10]; 31 g ai/ha): 0; Plant response rating (0 to 100 scale), Kochia ([11]; 31 g ai/ha): 0; Plant response rating (0 to 100 scale), Pigweed ([12]; 31 g ai/ha): 0; Plant response rating (0 to 100 scale), Ryegrass, It. ([13]; 31 g ai/ha): 0; Plant response rating (0 to 100 scale), Galium ([14]; 31 g ai/ha): 30; Plant response rating (0 to 100 scale), Barnyardgrass ([17]; 125 g ai/ha): 0; Plant response rating (0 to 100 scale), Kochia ([18]; 31 g ai/ha): 0; Plant response rating (0 to 100 scale), Kochia ([18]; 125 g ai/ha): 0; Plant response rating (0 to 100 scale), Pigweed ([19]; 31 g ai/ha): 0; Plant response rating (0 to 100 scale), Pigweed ([19]; 125 g ai/ha): 0; Plant response rating (0 to 100 scale), Ryegrass, It. ([20]; 31 g ai/ha): 0; Plant response rating (0 to 100 scale), Ryegrass, It. ([20]; 125 g ai/ha): 0 |
| CCC(=O)Oc1c(C)nn(C)c(=O)c1-c1c(C(F)(F)F)ccc2cc(C)oc12 [Compound 47] | 0 | 0 | 0 | 0 | 0 | 80 | 10 | 0 | 10 | 0 | 0 | 70 | 90 | 30 | 80 | 20 | 80 | 0 | 0 | 0 | Corn plant response rating ([5]; 31 g ai/ha): 0; Ragweed plant response rating ([6]; 31 g ai/ha): 40; Foxtail, Green plant response rating ([7]; 31 g ai/ha): 0; Wheat plant response rating ([10]; 31 g ai/ha): 0; Kochia plant response rating ([11]; 31 g ai/ha): 40; Pigweed plant response rating ([12]; 31 g ai/ha): 90; Ryegrass, It. plant response rating ([13]; 31 g ai/ha): 0; Galium plant response rating ([14]; 31 g ai/ha): 70; Plant response rating (0 to 100 scale), Barnyardgrass ([17]; 125 g ai/ha): 30; Plant response rating (0 to 100 scale), Kochia ([18]; 31 g ai/ha): 40; Plant response rating (0 to 100 scale), Kochia ([18]; 125 g ai/ha): 50; Plant response rating (0 to 100 scale), Pigweed ([19]; 31 g ai/ha): 60; Plant response rating (0 to 100 scale), Pigweed ([19]; 125 g ai/ha): 100; Plant response rating (0 to 100 scale), Ryegrass, It. ([20]; 31 g ai/ha): 0; Plant response rating (0 to 100 scale), Ryegrass, It. ([20]; 125 g ai/ha): 80 |
| Cc1nn(C)c(=O)c(-c2c(Br)ccc3c2cnn3C)c1O [Compound 65] | 0 | 0 | 0 | 0 | 0 | 0 | 0 | 0 | 0 | 0 | 0 | 0 | 0 | 0 | 0 | 0 | 0 | 0 | 0 | 0 | Plant response rating (0 to 100 scale), Corn ([5]; 31 g ai/ha): 0; Plant response rating (0 to 100 scale), Ragweed ([6]; 31 g ai/ha): 0; Plant response rating (0 to 100 scale), Foxtail, Green ([7]; 31 g ai/ha): 0; Blackgrass plant response rating ([9]; 31 g ai/ha): 0; Plant response rating (0 to 100 scale), Wheat ([10]; 31 g ai/ha): 0; Plant response rating (0 to 100 scale), Kochia ([11]; 31 g ai/ha): 0; Plant response rating (0 to 100 scale), Pigweed ([12]; 31 g ai/ha): 0; Plant response rating (0 to 100 scale), Ryegrass, It. ([13]; 31 g ai/ha): 0; Plant response rating (0 to 100 scale), Galium ([14]; 31 g ai/ha): 0; Plant response rating (0 to 100 scale), Barnyardgrass ([17]; 125 g ai/ha): 0; Plant response rating (0 to 100 scale), Kochia ([18]; 31 g ai/ha): 0; Plant response rating (0 to 100 scale), Kochia ([18]; 125 g ai/ha): 0; Plant response rating (0 to 100 scale), Pigweed ([19]; 31 g ai/ha): 0; Plant response rating (0 to 100 scale), Pigweed ([19]; 125 g ai/ha): 0; Plant response rating (0 to 100 scale), Ryegrass, It. ([20]; 31 g ai/ha): 0; Plant response rating (0 to 100 scale), Ryegrass, It. ([20]; 125 g ai/ha): 0 |
| Cn1ncc(O)c(-c2cccc3cnccc23)c1=O [Compound 34] | 0 | 0 | 0 | 0 | 0 | 0 | 0 | 0 | 0 | 0 | 0 | 0 | 0 | 0 | 0 | 0 | 0 | 0 | 0 | 0 | Corn plant response rating ([5]; 31 g ai/ha): 0; Ragweed plant response rating ([6]; 31 g ai/ha): 0; Foxtail, Green plant response rating ([7]; 31 g ai/ha): 0; Blackgrass plant response rating ([9]; 31 g ai/ha): 0; Wheat plant response rating ([10]; 31 g ai/ha): 0; Kochia plant response rating ([11]; 31 g ai/ha): 0; Pigweed plant response rating ([12]; 31 g ai/ha): 0; Ryegrass, It. plant response rating ([13]; 31 g ai/ha): 0; Galium plant response rating ([14]; 31 g ai/ha): 0; Plant response rating (0 to 100 scale), Barnyardgrass ([17]; 125 g ai/ha): 0; Plant response rating (0 to 100 scale), Kochia ([18]; 31 g ai/ha): 0; Plant response rating (0 to 100 scale), Kochia ([18]; 125 g ai/ha): 0; Plant response rating (0 to 100 scale), Pigweed ([19]; 31 g ai/ha): 0; Plant response rating (0 to 100 scale), Pigweed ([19]; 125 g ai/ha): 0; Plant response rating (0 to 100 scale), Ryegrass, It. ([20]; 31 g ai/ha): 0; Plant response rating (0 to 100 scale), Ryegrass, It. ([20]; 125 g ai/ha): 0 |
